Data published in ChEMBL document CHEMBL1201862, “PubChem BioAssay data set” (2004).
The source made the active and inactive calls.

Assays:
[1] = luciferase reporter signal suppression in cells – H4 neuroglioma cells, luminescence, dose response (AID 1990); assay type: functional, cell-based
BJ [2] = experiment: BJ-TERT fibroblast viability loss – cell-based, RAS-independent, luminescence, dose response (AID 1933); assay type: functional; conditions: Homo sapiens
[3] = Luminescence Cell-Based Dose Response HTS to Identify Inhibitors of 5'UTR Stem-Loop Driven Prion Protein mRNA Translation in H4 Neuroglioblastoma Cells. [Related pubchem assays: 1827 (Project Summary), 1813 (Primary HTS)]; assay type: functional
BJ [4] = experiment: cells; assay type: functional, cell-based; conditions: Homo sapiens
BJ [5] = experiment: BJ-TERT-LT-ST fibroblast viability loss – cell-based, RAS-independent, luminescence, dose response (AID 1935); assay type: functional; conditions: Homo sapiens;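 also: BJ fibroblasts immortalized with TERT plus LT and ST oncogenes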
[6] = DRD fibroblast viability loss – cell-based, non-viral oncogenic, luminescence, dose response (AID 1934); assay type: functional; conditions: Homo sapiens
[7] = Luminescence Cell-Based Dose Retest to Confirm Inhibitors of Cancer Stem Cells. [Related pubchem assays (depositor defined):AID2717, AID2721]; assay type: functional; conditions: Homo sapiens
[8] = HEK-293T viability loss after treatment – luminescence, T-cell screen hits, cytotoxicity control for TCR NF-kB inhibitor project, dose response (AID 489026); assay type: functional, cell-based;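 also: cells exposed to compound about 14 hours before the viability readout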
BJ [9] = experiment: growth inhibition of engineered Ras-driven BJ cells – cell-based, alamar blue fluorescence, cherrypicked samples, dose response (AID 2631); assay type: functional; conditions: Homo sapiens;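 also: confirmatory dose-response assay in RAS-dependent BJ fibroblasts engineered with TERT, LT and ST, with cytotoxicity read by fluorescence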
[10] = target: T1, Heat shock factor protein 1 (Mus musculus, UniProt P38532); experiment: decrease of HSF1-responsive luciferase luminescence – cell-based, NIH3T3, dose retest, confirmation (AID 2382); assay type: functional;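 also: NIH3T3 fibroblasts with HSF1-driven luciferase reporter stressed by proteasome inhibitor MG132; luminescence from HSF1-driven luciferase expression after 8 hours of MG132 stress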
T1 sequence (P38532 whole entry): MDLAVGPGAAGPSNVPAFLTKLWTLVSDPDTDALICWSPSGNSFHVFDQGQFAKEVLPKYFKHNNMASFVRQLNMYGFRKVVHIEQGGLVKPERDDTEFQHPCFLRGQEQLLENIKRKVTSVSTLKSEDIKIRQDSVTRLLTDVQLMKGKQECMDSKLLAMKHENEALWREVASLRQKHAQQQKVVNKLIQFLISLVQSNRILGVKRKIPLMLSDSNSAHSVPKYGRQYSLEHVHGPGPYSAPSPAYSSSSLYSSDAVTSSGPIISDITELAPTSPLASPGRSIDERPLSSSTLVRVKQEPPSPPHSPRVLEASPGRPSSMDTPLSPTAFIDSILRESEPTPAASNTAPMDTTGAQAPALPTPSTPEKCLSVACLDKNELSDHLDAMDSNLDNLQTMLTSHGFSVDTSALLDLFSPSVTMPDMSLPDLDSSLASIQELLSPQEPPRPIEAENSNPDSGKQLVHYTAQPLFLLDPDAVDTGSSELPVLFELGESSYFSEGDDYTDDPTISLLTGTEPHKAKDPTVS

[11] = Luminescence-based counterscreen assay for KLF5 inhibitors: dose response cell-based high throughput screening assay to identify cytotoxic compounds using the IEC-6 intestinal epithelial cell line. [Related pubchem assays: 1700 (Primary screen.), 1834 (Confirmation screen.), 1858 (Summary AID.), 1905 (Counterscreen.)]; assay type: functional
Jurkat [12] = experiment: blockers of NF-kB activation in T cells – Jurkat, luciferase reporter, luminescence, B- and T-cell, dose response (AID 489004); assay type: functional, cell-based; conditions: Homo sapiens;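 also: NF-kB luciferase reporter Jurkat cells stimulated with PMA plus ionomycin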
[13] = HEK-293T viability loss, compound-treated – cell-based, uHTS hits, cytotoxicity control for B/T-cell NF-kB inhibitor project, dose response (AID 489019); assay type: functional;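 also: IC50 reflects cytotoxicity as loss of cell viability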
[14] = reduction of Shn3 3'UTR-driven luciferase in osteoblasts – cell-based, Clone20 osteoblasts, firefly luciferase, cherry-picked, dose response (AID 624132); assay type: functional;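 also: firefly luciferase luminescence from reporter carrying the Shn3 3'UTR in osteoblasts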
[15] = loss of viability in HepG2 cells – cell-based, CellTiter-Glo, cherry-picked, cytotoxicity control for Shn3 inhibitor project, dose response (AID 624134); assay type: functional
Paired box protein Pax-8 = Paired box protein Pax-8 (Homo sapiens, UniProt Q06710); experiment: PAX8 transcriptional activity inhibition in RMG-I – RMG-I cells, luciferase, cherry-pick, dose response (AID 687027); assay type: functional, cell-based;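 also: luciferase reporter driven by Pax8 target thyroperoxidase promoter measured by SteadyGlo luminescence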
Paired box protein Pax-8, sequence (Q06710 whole entry): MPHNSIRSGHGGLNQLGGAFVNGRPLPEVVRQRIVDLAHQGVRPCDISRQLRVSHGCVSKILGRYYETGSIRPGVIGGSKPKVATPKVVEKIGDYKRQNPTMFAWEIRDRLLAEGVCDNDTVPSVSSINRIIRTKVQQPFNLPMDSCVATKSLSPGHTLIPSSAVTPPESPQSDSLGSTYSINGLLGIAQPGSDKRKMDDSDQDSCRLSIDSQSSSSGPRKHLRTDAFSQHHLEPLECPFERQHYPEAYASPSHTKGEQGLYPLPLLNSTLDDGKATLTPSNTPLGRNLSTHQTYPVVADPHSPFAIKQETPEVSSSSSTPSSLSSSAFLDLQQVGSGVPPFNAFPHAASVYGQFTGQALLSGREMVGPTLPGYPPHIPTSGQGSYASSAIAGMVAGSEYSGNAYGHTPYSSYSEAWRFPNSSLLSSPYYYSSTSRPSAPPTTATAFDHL

[16] = inhibitors acting on PAX2 in cells – cell-based, plate reader, dry powder samples, selectivity assay for PAX8 inhibitor project, dose response (AID 743048); assay type: functional;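 also: HEK293 cells carrying a WT1 promoter luciferase reporter driven by expressed Pax2; potency is for inhibition of Pax2 driven reporter signal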
[17] = COV362 cell viability loss – plate reader, dry powder, SA12, cytotoxicity control for PAX8 inhibitor project, dose response (AID 743144); assay type: functional, cell-based
[18] = Shn3 3'UTR reporter signal decrease – cell-based, Clone20 osteoblasts, firefly luciferase, cherry-pick, set 2, Schnurri-3 inhibitor project, dose response (AID 720490); assay type: functional;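 also: actives lower the luminescence signal as inhibitors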
[19] = toxicity toward immortalized ovarian surface epithelium – cell-based, plate reader, dry powder samples, cytotoxicity control for PAX8 inhibitor project, dose response (AID 743045); assay type: functional
[20] = PAX5 cellular inhibition readout – cell-based, plate reader, dry powder samples, selectivity assay for PAX8 inhibitor project, dose response (AID 743047); assay type: functional;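 also: HEK293 cells carrying a Pax5 driven CD19 promoter luciferase reporter; potency of inhibitors that lower reporter luminescence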
[21] = IGROV1 cell killing – plate reader, dry powder samples, PAX8 inhibitor project, dose response (AID 743043); assay type: functional, cell-based; conditions: IGROV-1
[22] = PAX8-dependent cell viability loss – plate reader, dry powder, dose response (AID 743049); assay type: functional, cell-based
Escherichia coli = experiment: microbe, parasite or virus in culture
[23] = target: Acyl-homoserine lactone acylase PvdQ (Pseudomonas aeruginosa (strain LESB58), UniProt Q9I194); experiment: PvdQ acylase enzyme activity blockers – biochemical, fluorescence, plate reader and imaging, cherry-picks, dose response (AID 493231)
Acyl-homoserine lactone acylase PvdQ, sequence (Q9I194 24-193 limits assumed): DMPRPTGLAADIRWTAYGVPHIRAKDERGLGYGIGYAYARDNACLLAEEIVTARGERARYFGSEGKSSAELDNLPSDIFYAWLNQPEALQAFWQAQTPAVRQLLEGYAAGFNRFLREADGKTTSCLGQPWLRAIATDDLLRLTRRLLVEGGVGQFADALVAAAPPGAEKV
Acyl-homoserine lactone acylase PvdQ, sequence (Q9I194 217-762 limits assumed): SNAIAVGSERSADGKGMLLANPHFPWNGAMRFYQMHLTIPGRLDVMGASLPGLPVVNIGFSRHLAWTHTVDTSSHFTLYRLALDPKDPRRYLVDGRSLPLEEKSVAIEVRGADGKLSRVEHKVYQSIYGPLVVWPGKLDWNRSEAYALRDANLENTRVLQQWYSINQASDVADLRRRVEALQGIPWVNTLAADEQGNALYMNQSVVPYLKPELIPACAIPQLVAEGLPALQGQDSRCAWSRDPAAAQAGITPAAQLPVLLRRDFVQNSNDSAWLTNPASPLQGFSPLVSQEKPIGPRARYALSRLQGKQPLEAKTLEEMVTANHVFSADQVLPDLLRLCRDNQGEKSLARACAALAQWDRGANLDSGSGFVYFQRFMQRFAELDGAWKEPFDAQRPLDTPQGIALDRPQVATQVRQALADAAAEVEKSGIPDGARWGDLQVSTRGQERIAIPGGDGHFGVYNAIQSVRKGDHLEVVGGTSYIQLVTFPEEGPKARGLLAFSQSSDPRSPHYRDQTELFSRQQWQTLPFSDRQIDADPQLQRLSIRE

HeLa = experiment: toxicity to human HeLa cells – cell-based, 48 h, plate reader, cherry-picks, cytotoxicity control, dose response (AID 504942); assay type: functional
CAAX prenyl protease 2 [24] = target: CAAX prenyl protease 2 (Saccharomyces cerevisiae S288c, UniProt Q03530); assay type: biochemical
CAAX prenyl protease 2 (Saccharomyces cerevisiae S288c, UniProt Q03530), sequence (Q03530 whole entry): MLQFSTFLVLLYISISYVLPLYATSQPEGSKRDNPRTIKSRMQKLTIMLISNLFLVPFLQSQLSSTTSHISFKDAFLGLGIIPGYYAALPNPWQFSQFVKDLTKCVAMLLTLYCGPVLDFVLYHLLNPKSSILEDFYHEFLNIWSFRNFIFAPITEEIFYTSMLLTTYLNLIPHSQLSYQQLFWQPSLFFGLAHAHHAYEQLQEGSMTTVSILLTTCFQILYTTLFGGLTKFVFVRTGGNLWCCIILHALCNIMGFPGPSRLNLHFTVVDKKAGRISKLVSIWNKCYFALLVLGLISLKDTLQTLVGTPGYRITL

CAAX prenyl protease 2 [25] = target: CAAX prenyl protease 2 (Homo sapiens, UniProt Q9Y256); experiment: inhibition of Ras-converting CAAX protease Rce1 – biochemical, yeast membranes, quenched-peptide fluorescence, cherry-pick, dose response (AID 588849)
CAAX prenyl protease 2 (Homo sapiens, UniProt Q9Y256), sequence (Q9Y256 whole entry): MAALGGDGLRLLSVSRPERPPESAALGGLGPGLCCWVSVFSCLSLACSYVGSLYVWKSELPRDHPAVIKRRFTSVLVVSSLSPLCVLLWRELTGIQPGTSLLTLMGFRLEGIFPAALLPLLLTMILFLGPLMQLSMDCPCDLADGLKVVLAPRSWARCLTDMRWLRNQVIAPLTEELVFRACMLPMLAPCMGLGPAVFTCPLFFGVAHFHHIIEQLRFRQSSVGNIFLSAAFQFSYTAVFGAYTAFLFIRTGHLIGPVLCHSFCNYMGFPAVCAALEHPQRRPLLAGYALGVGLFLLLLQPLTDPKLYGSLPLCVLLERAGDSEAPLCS

[26] = alpha-synuclein stem-loop luciferase translation blockers – H4 neuroglioma cells, luminescence, confirmation (AID 1988); assay type: functional, cell-based
HEK293 [27] = experiment: HEK293T cell viability loss, resazurin readout – resazurin fluorescence, cytotoxicity control for NF-kB activator project, SAR follow-up (AID 493251); assay type: functional, cell-based; conditions: Homo sapiens
Jurkat [28] = experiment: SAR Analysis of small molecule inhibitors of T-cell specific antigen receptor-induced NF-kB activation in a Jurkat cell line using a luminescence assay - Set 2. [Related pubchem assays (depositor defined):AID435003, AID435012, AID465]; assay type: functional, cell-based; conditions: Homo sapiens
HEK293 [29] = experiment: SAR Analysis of small molecule inhibitors of T-cell specific antigen receptor-induced NF-kB activation in a HEK-293T cell line using a luminescence assay - Set 2. [Related pubchem assays (depositor defined):AID435003, AID435012, AID489026]; assay type: functional, cell-based; conditions: Homo sapiens
[30] = non-specific 3'UTR reporter inhibition in Clone20-Shn3RL – cell-based, Renilla luciferase, cherry-picked, counter-screen for Shn3 inhibitor project, dose response (AID 624133); assay type: functional
[31] = Fluorescence-based cell-based high throughput dose response assay for inhibitors of the interaction of nucleotide-binding oligomerization domain containing 2 (NOD2) and the receptor-interacting serine-threonine kinase 2 (RIPK2).; assay type: functional; conditions: Homo sapiens
Phospholipase D1 = Phospholipase D1 (Homo sapiens, UniProt Q13393); experiment: cellular phospholipase D1 inhibition IC50 – cell-based, dose response (AID 602151); assay type: functional;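 also: cellular PLD1 assay in Calu-1 cells stimulated with PMA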
Phospholipase D1, sequence (Q13393 whole entry): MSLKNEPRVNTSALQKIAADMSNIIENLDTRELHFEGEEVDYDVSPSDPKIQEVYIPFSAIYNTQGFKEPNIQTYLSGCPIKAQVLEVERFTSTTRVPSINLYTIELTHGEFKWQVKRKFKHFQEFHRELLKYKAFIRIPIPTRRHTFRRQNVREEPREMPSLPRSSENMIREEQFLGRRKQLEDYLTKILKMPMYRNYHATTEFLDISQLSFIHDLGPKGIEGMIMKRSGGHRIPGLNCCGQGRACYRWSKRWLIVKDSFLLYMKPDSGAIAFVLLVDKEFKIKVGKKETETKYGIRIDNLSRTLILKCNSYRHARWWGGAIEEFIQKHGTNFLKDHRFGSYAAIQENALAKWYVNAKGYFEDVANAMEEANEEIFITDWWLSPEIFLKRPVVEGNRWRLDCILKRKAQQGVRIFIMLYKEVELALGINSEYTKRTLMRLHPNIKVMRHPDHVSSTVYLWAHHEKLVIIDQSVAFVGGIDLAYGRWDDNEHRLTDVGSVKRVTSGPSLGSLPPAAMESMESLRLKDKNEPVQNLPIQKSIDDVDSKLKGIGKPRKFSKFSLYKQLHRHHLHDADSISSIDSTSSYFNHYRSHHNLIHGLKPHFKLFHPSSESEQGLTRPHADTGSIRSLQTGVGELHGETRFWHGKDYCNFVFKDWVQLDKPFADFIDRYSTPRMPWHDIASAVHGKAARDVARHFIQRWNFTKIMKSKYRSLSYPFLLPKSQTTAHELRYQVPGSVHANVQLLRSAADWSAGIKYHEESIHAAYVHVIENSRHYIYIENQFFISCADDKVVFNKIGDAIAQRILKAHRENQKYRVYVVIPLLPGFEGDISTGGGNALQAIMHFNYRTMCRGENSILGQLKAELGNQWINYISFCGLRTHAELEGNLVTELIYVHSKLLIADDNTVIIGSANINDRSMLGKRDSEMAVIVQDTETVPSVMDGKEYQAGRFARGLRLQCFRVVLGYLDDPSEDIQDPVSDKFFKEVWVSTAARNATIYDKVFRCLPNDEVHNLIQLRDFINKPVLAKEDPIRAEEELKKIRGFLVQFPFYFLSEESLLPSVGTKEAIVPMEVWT

Phospholipase D2 = Phospholipase D2 (Homo sapiens, UniProt O14939); experiment: cellular phospholipase D2 inhibition IC50 – cell-based, dose response (AID 602147); assay type: functional;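 also: cellular assay in HEK293 cells overexpressing GFP-tagged PLD2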
Phospholipase D2, sequence (O14939 whole entry): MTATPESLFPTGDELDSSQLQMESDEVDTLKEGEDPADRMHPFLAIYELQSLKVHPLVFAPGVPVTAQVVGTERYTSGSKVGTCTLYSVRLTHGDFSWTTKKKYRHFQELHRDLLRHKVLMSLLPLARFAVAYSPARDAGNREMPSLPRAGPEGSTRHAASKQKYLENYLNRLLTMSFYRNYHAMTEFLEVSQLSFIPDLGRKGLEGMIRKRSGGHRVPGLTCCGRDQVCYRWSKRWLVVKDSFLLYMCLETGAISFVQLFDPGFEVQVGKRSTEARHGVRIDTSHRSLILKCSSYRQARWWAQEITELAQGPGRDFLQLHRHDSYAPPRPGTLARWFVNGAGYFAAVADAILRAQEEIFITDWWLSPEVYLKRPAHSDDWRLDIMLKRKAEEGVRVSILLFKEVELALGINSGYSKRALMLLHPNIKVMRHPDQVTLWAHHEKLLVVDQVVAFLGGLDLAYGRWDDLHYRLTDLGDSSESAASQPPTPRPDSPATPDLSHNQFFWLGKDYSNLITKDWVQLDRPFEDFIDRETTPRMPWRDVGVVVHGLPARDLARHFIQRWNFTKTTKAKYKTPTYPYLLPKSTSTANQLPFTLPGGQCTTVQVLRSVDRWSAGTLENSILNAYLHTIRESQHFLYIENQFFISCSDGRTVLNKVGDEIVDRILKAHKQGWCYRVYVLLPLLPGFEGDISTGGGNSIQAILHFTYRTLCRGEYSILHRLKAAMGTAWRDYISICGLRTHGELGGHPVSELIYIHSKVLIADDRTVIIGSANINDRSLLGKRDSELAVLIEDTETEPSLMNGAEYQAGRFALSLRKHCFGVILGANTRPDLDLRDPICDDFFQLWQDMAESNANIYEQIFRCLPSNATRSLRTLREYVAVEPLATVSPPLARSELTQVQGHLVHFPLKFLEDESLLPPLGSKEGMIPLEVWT

O=Cc1cc2ccccc2nc1SCc1ccc(Cl)c(Cl)c1
inactive: IC50 [8] > 80 µM
inconclusive: EC50 (BJ [5]) 0.396 µM
active: EC50 (BJ [2]) 0.279 µM | EC50 (BJ [4]) 0.777 µM | EC50 [6] 0.567 µM | AC50 [7] 2.82 µM | EC50 (BJ [9]) < 0.104 µM
> 120 µM (not active): EC50 [1] | EC50 [3]

O=C(NCCc1ccccc1)c1ccc2c(c1)OCCCO2
inactive: IC50 [13] > 80 µM | AC50 [15] > 70 µM
> 39.8 µM (not active): IC50 [11]
active: EC50 [10] < 0.16 µM | IC50 (Jurkat [12]) 0.64 µM | AC50 [14] 1.05 µM | AC50 (Paired box protein Pax-8) 2.38 µM | AC50 [16] 2 µM | AC50 [17] 84.9 µM | AC50 [18] 3.96 µM | AC50 [19] 14.2 µM | AC50 [20] 2.29 µM | AC50 [21] 40.3 µM | AC50 [22] 58.7 µM | AC50 (Escherichia coli) 34.1 µM

COC(=O)c1ccc(/C=C(\C#N)c2ccccn2)cc1
active: AC50 [23] 2.61 µM | AC50 (HeLa) 103 µM

O=C(c1cc(-c2ccccc2)nc2ccccc12)N1CCN(c2ccccn2)CC1
active: AC50 (CAAX prenyl protease 2 [24]) 4.89 µM | AC50 (CAAX prenyl protease 2 [25]) 17 µM

CC(=O)N1CCN(c2ccc(NC(=O)c3ccc([N+](=O)[O-])o3)cc2Cl)CC1
active: EC50 [1] 11.1 µM | EC50 [3] 8.31 µM | EC50 [26] 9.29 µM | AC50 [14] 1.08 µM | AC50 [15] 48.1 µM | AC50 [30] 11.2 µM | AC50 (Paired box protein Pax-8) 5.83 µM
inactive: IC50 (HEK293 [27]) 55.3 µM | IC50 (Jurkat [28]) 27.3 µM | IC50 (HEK293 [29]) 22 µM | IC50 [31] 49.8 µM

O=C(NCCN1CCC2(CC1)C(=O)Oc1ccccc12)c1cnc2ccccc2c1
active: IC50 (Phospholipase D2) 20 µM
inactive: IC50 (Phospholipase D1) 20 µM
